# Measurements: patent US5374764A, “5-aminosulfonanilide compounds” (Taisho Pharmaceutical Co., Ltd., priority 1991, dated 1994)
# Test system: adjuvant arthritis
# Experiment: Test of action on adjuvant arthritis (therapy)
# Type: in vivo, Lewis strain rats
# Conditions: Rattus norvegicus, 96 h; oral, 1 mg/kg once a day for 4 days, in 5% gum arabic; Lewis rats with fully developed adjuvant arthritis; foot volume on day after final administration; read-out: Edema inhibition ratio (%)
row,SMILES,inhibition in vivo at 1 mg/kg
1,CCOC(=O)C(=O)Nc1cc(NS(C)(=O)=O)c(OC2CCCCC2)cc1[N+](=O)[O-] [Test drug 6],50.9%
2,CC(=O)Nc1cc(NS(C)(=O)=O)c(OC2CCCCC2)cc1[N+](=O)[O-] [Test drug 3],45.7%
3,"CCCCC(=O)Nc1cc(NS(C)(=O)=O)c(OC2CCCCC2)cc1[N+](=O)[O-] [Test drug 1, N-[2-cyclohexyloxy-4-nitro-5-(n-valerylamino)phenyl]methanesulfonamide]",46.5%
4,CS(=O)(=O)Nc1cc(NC=O)c([N+](=O)[O-])cc1OC1CCCCC1 [Test drug 2],43.1%
5,CCCOC(=O)C(=O)Nc1cc(NS(C)(=O)=O)c(OC2CCCCC2)cc1[N+](=O)[O-] [Test drug 7],37.2%
6,"CCCC(=O)Nc1cc(NS(C)(=O)=O)c(OC2CCCCC2)cc1[N+](=O)[O-] [Test drug 5, N-[5-(n-butyrylamino)-2-cyclohexyloxy-4-nitrophenyl)methanesulfonamide]",44.2%
7,CCOC(=O)CCC(=O)Nc1cc(NS(C)(=O)=O)c(OC2CCCCC2)cc1[N+](=O)[O-] [Test drug 9],52.8%
8,CCC(=O)Nc1cc(NS(C)(=O)=O)c(OC2CCCCC2)cc1[N+](=O)[O-] [Test drug 4],48.5%
9,CS(=O)(=O)Nc1ccc([N+](=O)[O-])cc1OC1CCCCC1 [compound 11],19.7%
10,"CS(=O)(=O)Nc1cc(N)c([N+](=O)[O-])cc1OC1CCCCC1 [Test drug 10, N-(5-amino-2-cyclohexyloxy-4-nitrophenyl)methanesulfonamide]",46.7%
11,COC(=O)CC(=O)Nc1cc(NS(C)(=O)=O)c(OC2CCCCC2)cc1[N+](=O)[O-] [Test drug 8],38%
